Data on one compound can be found in patent US12048682B2, “Combination of micheliolide derivatives or nanoparticles with ionizing radiation and checkpoint inhibitors for cancer therapy” (The University of Chicago, priority 2018, dated 2024).

One data set deals with GL261 cells. In words: In vitro cytotoxicity against glioma cells GL261 (MTS assay), with or without X-ray irradiation. The class given is cell-based, mouse. The protocol: GL261 cells were seeded onto 96-well plates at a density of 2000 cells/well and treated with various concentrations of the dimethylamino Michael adduct of MCL (dimethylamino micheliolide, […]) for 24 hours to allow for sufficient cellular uptake and conversion to MCL before irradiation. The cells were irradiated with varying amounts of X-ray irradiation and then incubated for an additional 24 hours. The culture medium was exchanged with fresh medium and further incubated for an additional 48 hours. The cell viability was then detected by (3-(4,5-dimethylthiazol-2-yl)-5-(3-carboxymethoxyphenyl)-2-(4-sulfophenyl)-2H-tetrazolium) (MTS) assay (Promega, Madison, Wisconsin, United States of America).
For orientation: Formazan colour is commonly taken as a measure of viable cells.

Data set [1] has as its system glioma GL261 tumor model. In words: In vivo antitumor activity, glioma GL261 tumor model on wildtype C57BL/6 mice (irradiation and PD-L1 antibody combination). The protocol: The combination of DMAMCL, irradiation, and PD-L1 antibody was evaluated on the glioma GL261 tumor model on wildtype C57BL/6 mice. The treatment began 14 days after the inoculation of 2×10^6 GL261 cells. The mice were orally dosed with 50 mg/kg DMAMCL or PBS daily and irradiated with 2 Gy irradiation approximately 4 hrs after dosing, as applicable, for up to 12 days, starting when the tumors reached ˜150 mm^3-200 mm^3. One group of mice received two doses of 75 μg PD-L1 antibody on days 0 and 4. […] By the cessation of treatment, 3/5 tumors treated with this combination were barely palpable.

For data set [2], the system named is glioma GL261 tumor model. In words: In vivo antitumor activity, glioma GL261 tumor model on immunocompromised Rag2-/- C57BL/6 mice. The protocol:
The combination of […] and irradiation was evaluated on the glioma GL261 tumor model on immunocompromised Rag2^-/- C57BL/6 mice. The mice were orally dosed with 50 mg/kg […] or PBS daily and irradiated with 4 Gy irradiation approximately 4 hrs after dosing, as applicable, for up to 7 days, starting when the tumors reached about […]. A Precision X-ray X-RAD 225 Image Guided Biologic Irradiator (Precision X-Ray Irradiation, North Branford, Connecticut, United States of America) was used for all animal studies. The instrument was set at 225 peak kilovoltage (kVp) and 13 milliampere (mA), with a 0.3 mm flat-board copper (Cu) filter installed before a 15-mm collimator. The irradiation was given in two successive fractions with incident angles of 0° and 180° for each mouse.

In the case of `CC1=C2CC[C@@](C)(O)[C@@H]2[C@H]2OC(=O)[C@@H](CN(C)C)[C@@H]2CC1` [DMAMCL, dimethylamino micheliolide], the “cytotoxicity (cell viability)” value in the data set on GL261 cells (1 μM DMAMCL and X-ray irradiation of 8 Gy) is on record as “significant cytotoxicity”; with GL261 cells (10 μM DMAMCL and X-ray irradiation of 8 Gy), “significant cytotoxicity”. The “toxicity (cell viability)” value with GL261 cells (DMAMCL monotherapy, doses up to 10 μM, no irradiation) is “little to no toxicity”. The tumor growth entry was “controlled and regressed tumor growth immediately after treatment” in the data set with glioma GL261 tumor model [1] (DMAMCL 50 mg/kg oral daily plus 2 Gy irradiation plus 75 μg PD-L1 antibody on days 0 and 4, wildtype C57BL/6 mice); “suppressed tumor growth and ultimately led to tumor regression” with glioma GL261 tumor model [1] (DMAMCL 50 mg/kg oral daily plus 2 Gy irradiation, up to 12 days, wildtype C57BL/6 mice); “no effect on tumor growth” in the data set with glioma GL261 tumor model [1] (DMAMCL alone, 50 mg/kg oral daily up to 12 days, wildtype C57BL/6 mice); “successfully controlled tumor growth” in the data set on glioma GL261 tumor model [2] (DMAMCL 50 mg/kg oral daily plus 4 Gy irradiation about 4 hrs after dosing, up to 7 days); “initially suppressed tumor growth” in the data set on glioma GL261 tumor model [2] (DMAMCL alone, 50 mg/kg oral daily up to 7 days). The “tumors barely palpable by the cessation of treatment” value with glioma GL261 tumor model [1] (DMAMCL plus 2 Gy irradiation plus PD-L1 antibody, wildtype C57BL/6 mice) is 3/5. For the same compound, the “tumor size compared to irradiation alone” value in the data set on glioma GL261 tumor model [2] (DMAMCL alone, 50 mg/kg oral daily up to 7 days, final tumor size) was “not significantly different in size”.
